The record followed here is US11814364B2, “Pyridine N-oxide derivatives useful as factor XIa inhibitors” (Janssen Pharmaceutica NV, priority 2021, dated 2023).

Holding throughout (type): biochemical
The target of experiment [1] is T1, Factor XIa (Homo sapiens, UniProt P03951). As to the kind of experiment: Factor XIa inhibition FLINT assay with fluorophore-quencher peptide substrate 5Fam-[…]-K5Tamra (end point EP or kinetic KIN reads). The settings on record: fit to a substrate inhibition model.
The target in the next experiment is human plasma kallikrein (Homo sapiens, UniProt P03952). As to the kind of experiment: Kallikrein inhibition FLINT assay with quenched AMC peptide substrate Z-Gly-Pro-Arg-AMC (end point EP or kinetic KIN reads). The method in brief:
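Enzyme and compound were preincubated 30 min before adding 50 μM AMC substrate in pH 7.5 Tris/NaCl/CaCl2/BSA/CHAPS buffer. AMC release was read at 30 min endpoint or every 5 min.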

Experiment [2] has as its target T1, Factor XIa. In words: Factor XIa inhibition FLINT assay with fluorophore-quencher peptide substrate 5Fam-[…]-K5Tamra (end point EP or kinetic KIN reads). The settings on record: end point read at 30 min; read-out: FXIa (EP) IC50. The source says:
Factor XIa inhibition assay utilizing a fluorophore-quencher pair peptide substrate A fluorescence intensity (FLINT) based assay was used to monitor inhibition of Factor XIa. The peptide substrate, 5Fam-[…]-K5Tamra (purchased from New England Peptide) was chosen based on the FXI sequence. Conversion of zymogen FXI to its activated form, FXIa, occurs by proteolytic cleavage by […] at two sites, Arg146 and Arg180. The custom peptide used in this assay was based on the Arg146 cleavage site of FXI. The peptide substrate was designed with a fluorophore-quencher pair, where the fluorescence is quenched until FXIa cleaves the 8-mer peptide after the Arg residue.
Test compound(s) were run in an 11-point, 3-fold serial dilution with a final top compound concentration of 100 nM. Final DMSO in assay was 2%. FXIa was preincubated with compound for 30-minutes and then substrate was added to initiate the reaction. The assay was run with either end point (EP) reads at 30 min or kinetic (KIN) reads at 5 min intervals over 30 minutes. […] More specifically, the assay was run as follows: • 100 nL of 0.01 mM test compound was dispensed into black 384-well non-binding Greiner BioOne 784900 plate for 0.1 μM final concentration; • 5 μL of 1× assay buffer was dispensed to column 24 (low control) and 5 μL 2× Factor XIa solution was dispensed to columns 1-23 (column 23 high control); • the plate was centrifuged with a “cover” plate at 500 rpm for 1 min • the plate was pre-incubated for 30 minutes at room temperature with plate covered; • 5 μL of 2×5Fam-[…]-K5Tamra peptide substrate was dispensed into the entire plate, columns 1-24; • the plate was centrifuged with a “cover” plate at 500 rpm for 1 min; • the plate was read monitoring fluorescence intensity on the BMG PHERAStar at room temperature, using fluorescence module 485 nm/520 nm.
Percent inhibition (IC50) curves were generated per compound tested, and data was analyzed using a 4-parameter logistic fit using GeneData Screener. The relative fluorescence unit (RFU) values were normalized to percent inhibition using the following equation: % inhibition=((HC−LC)−(compound−LC)/(HC−LC))*100
An 11-point dose response curve for the test compound(s) was generated using GENDATA to determine IC50 value based on the following equation: Y=Bottom+(Top−Bottom)/(1+10^((log IC50−X)*HillSlope))
Results listed in columns with […] designation were measured using endpoint reads where a single fluorescence reading was measured for each well at a 30 min timepoint.

The mark [3] stands for this setting: end point read at 30 min, read-out: Kallikrein (EP) IC50.
Where [4] appears, read: kinetic reads at 5 min intervals over 30 min, read-out: Kallikrein (KIN) IC50.

Read-outs that look alike come from different tables or passages of the source. *1 amine or outer side, *2 acyl side, *3 side chain or, on linkers, in order; H or OH if unused. The star is where a group is joined. Lys(5-TAMRA) = CN(C)c1ccc2c(-c3ccc(C(=O)NCCCC[C@H](N[*:1])C(=O)[*:2])cc3C(=O)[O-])c3ccc(N(C)C)cc3[o+]c2c1; 5FAM = O=C1OC2(c3ccc(O)cc3Oc3cc(O)ccc32)c2ccc(C(=O)*)cc21

Sequence of human plasma kallikrein (P03952 391-638 limits assumed): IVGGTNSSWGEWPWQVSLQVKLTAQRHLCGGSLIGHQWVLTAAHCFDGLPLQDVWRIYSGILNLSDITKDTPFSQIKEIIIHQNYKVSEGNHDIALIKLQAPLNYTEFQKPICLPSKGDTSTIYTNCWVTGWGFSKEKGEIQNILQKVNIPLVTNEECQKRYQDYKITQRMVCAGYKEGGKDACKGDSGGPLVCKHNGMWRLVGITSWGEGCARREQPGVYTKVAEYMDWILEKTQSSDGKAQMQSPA
Sequence of human plasma kallikrein (P03952 20-390 partner limits assumed): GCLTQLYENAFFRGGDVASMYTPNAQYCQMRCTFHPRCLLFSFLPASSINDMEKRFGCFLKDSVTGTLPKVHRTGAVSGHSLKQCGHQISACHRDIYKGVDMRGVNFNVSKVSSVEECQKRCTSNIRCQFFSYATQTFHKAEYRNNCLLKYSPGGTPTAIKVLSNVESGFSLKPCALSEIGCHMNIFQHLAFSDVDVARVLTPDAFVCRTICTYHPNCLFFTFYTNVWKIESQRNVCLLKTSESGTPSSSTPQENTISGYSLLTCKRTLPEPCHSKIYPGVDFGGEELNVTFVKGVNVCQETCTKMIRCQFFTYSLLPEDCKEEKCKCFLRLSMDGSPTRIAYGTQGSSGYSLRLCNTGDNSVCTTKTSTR
T1 sequence (P03951 388-625 limits assumed): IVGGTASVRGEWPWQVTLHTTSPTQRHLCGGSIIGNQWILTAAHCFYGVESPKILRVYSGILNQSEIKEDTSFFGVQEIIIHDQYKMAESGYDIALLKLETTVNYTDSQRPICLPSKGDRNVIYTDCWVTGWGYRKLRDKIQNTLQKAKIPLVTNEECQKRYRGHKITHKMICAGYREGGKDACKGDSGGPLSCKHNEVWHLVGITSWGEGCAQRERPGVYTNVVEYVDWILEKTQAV
T1 sequence (P03951 19-387 partner limits assumed): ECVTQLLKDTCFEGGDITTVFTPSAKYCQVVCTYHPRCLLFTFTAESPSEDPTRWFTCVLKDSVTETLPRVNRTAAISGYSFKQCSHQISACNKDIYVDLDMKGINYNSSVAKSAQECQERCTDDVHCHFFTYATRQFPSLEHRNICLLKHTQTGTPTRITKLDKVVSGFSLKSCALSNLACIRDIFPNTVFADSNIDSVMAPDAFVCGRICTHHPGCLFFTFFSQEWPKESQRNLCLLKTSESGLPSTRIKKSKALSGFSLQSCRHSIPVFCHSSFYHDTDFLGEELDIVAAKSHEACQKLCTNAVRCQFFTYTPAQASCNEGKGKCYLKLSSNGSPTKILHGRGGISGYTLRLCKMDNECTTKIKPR

Broadly, the Km is the concentration of substrate that gives half-maximal velocity. The term kcat denotes the number of substrate molecules converted per active site and unit of time at saturation. As for “5Fam-KLTRAETV-K5Tamra (5FAM-KLTRAETV-{Lys(5-TAMRA)}; SMILES CC(C)C[C@H](NC(=O)[C@H](CCCCN)NC(=O)c1ccc2c(c1)C(=O)OC21c2ccc(O)cc2Oc2cc(O)ccc21)C(=O)N[C@H](C(=O)N[C@@H](CCCNC(=N)N)C(=O)N[C@@H](C)C(=O)N[C@@H](CCC(=O)O)C(=O)N[C@H](C(=O)N[C@H](C(=O)N[C@@H](CCCCNC(=O)c1ccc(-c2c3ccc(N(C)C)cc3[o+]c3cc(N(C)C)ccc23)c(C(=O)[O-])c1)C(=O)O)C(C)C)[C@@H](C)O)[C@@H](C)O) ["The peptide substrate ; (purchased from New England Peptide)", "designed with a fluorophore-quencher pair", based on the Arg146 cleavage site of FXI]”, in the experiment with Factor XIa [1] (peptide substrate of FXIa), the Km was determined as 12.4 µM and the kcat came out at 0.86 s⁻¹. The molecule further gave a Ki with Factor XIa [1] (substrate inhibition constant) of 61600 nM.
Usually IC50 stands for the concentration needed to halve the response being measured. Regarding `O=C(O)c1ccc(-c2cnn(C(Cc3ccc(F)cc3)c3ccc(-c4cc(Cl)ccc4OCC(F)(F)F)c[n+]3[O-])c2)cc1` (stereo not shown) [Example Q2], the IC50 at human plasma kallikrein (setting [3]) is 674 nM; on Factor XIa [2] it was 41 nM.
On to `CS(=O)(=O)NC(=O)c1ccc(-c2cnn(C(CC3CC3)c3ccc(-c4cc(Cl)ccc4-n4cnnn4)c[n+]3[O-])c2)cc1` (stereo not shown) [Example P18], for which the IC50 was 396 nM at human plasma kallikrein (setting [3]) and 3.1 nM on Factor XIa [2].
With `CC(=O)Nc1ccc(-c2cnn(C(CC3CC3)c3ccc(-c4c(-n5cnnn5)ccc(Cl)c4F)c[n+]3[O-])c2)cc1` (stereo not shown) [Example P23], the IC50 came out at 66.1 nM at human plasma kallikrein (setting [3]) and 4.4 nM at Factor XIa [2].
In the case of `COCCC(c1ccc(-c2c(-n3cnnn3)ccc(Cl)c2F)c[n+]1[O-])n1cc(-c2ccc(NC(=O)OC)cc2)cn1` (racemic) [Example P38], the results for the IC50 at human plasma kallikrein (setting [3]) and on Factor XIa [2] were 56 nM and 3.2 nM, respectively.
On to `O=C(O)c1ccc(-c2cnn(C(CC3CC3)c3ccc(-c4cc(Cl)ccc4-n4cnnn4)c[n+]3[O-])c2)cc1` (stereo not shown) [Example P1], for which the IC50 on human plasma kallikrein (setting [3]) was found to be 124 nM; on human plasma kallikrein (setting [4]), 157 nM; on Factor XIa [2], 2.6 nM.
On to `Nc1ccc(-c2cnn(C(CC3CC3)c3ccc(-c4c(-n5cnnn5)ccc(Cl)c4F)c[n+]3[O-])c2)cn1` (stereo not shown) [Example P24], for which the IC50 on human plasma kallikrein (setting [3]) stood at 114 nM; at Factor XIa [2], 4.9 nM.
For `COC(=O)Nc1ccc(-c2cnn(C(Cc3ccccc3)c3ccc(-c4cc(Cl)c(F)cc4-n4cnnn4)c[n+]3[O-])c2)cc1` (stereo not shown) [Example P46], the IC50 was found to be 341 nM at human plasma kallikrein (setting [3]) and 21.5 nM at Factor XIa [2].
Turning to `O=C(O)c1ccc(-c2cnn(C(CC3CC3)c3ccc(-c4c(-n5cnnn5)ccc(Cl)c4F)c[n+]3[O-])c2)cc1` (stereo not shown) [Example P9], the IC50 was 37 nM at human plasma kallikrein (setting [3]) and 0.29 nM at Factor XIa [2].
As for `CC(N)c1ccc(-c2cnn(C(Cc3ccccc3)c3ccc(-c4cc(Cl)ccc4-n4cnnn4)c[n+]3[O-])c2)cc1` (stereo not shown) [Example P47], the IC50 was determined as 405 nM at human plasma kallikrein (setting [3]) and 22.2 nM at Factor XIa [2].
For the molecule `O=C(O)c1ccc(-c2cnn(C(Cc3ccc(F)cc3)c3ccc(-c4cc(Cl)ccc4-n4cnnn4)c[n+]3[O-])c2)cc1` (stereo not shown) [Example P7], the IC50 is 4.1 nM on human plasma kallikrein (setting [3]), 1.3 nM at human plasma kallikrein (setting [4]) and 0.8 nM on Factor XIa [2].
